For test [1], the system named is Velvetleaf (VELE). The experiment in a line: whole plant or invertebrate. In kind it is in vivo, Abutilon theophrasti. To be noted: for inhibition at 140 g/ha: Abutilon theophrasti, iv, 312 h.
The test system of test [2] is Velvetleaf (VELE). The experiment in a line: Multi-crop greenhouse test, soil-applied (Examples 65, 66; Tables 64, 65). The test is classed as in vivo, Abutilon theophrasti. Details: inhibition: dose or concentration left out as unconfirmed. To be noted: for inhibition / inhibition at 18 g/ha / inhibition at 70 g/ha / inhibition at 280 g/ha: Abutilon theophrasti; for inhibition at 18 g/ha: Herb. No. 1 0.018 Kg/Ha alone; for inhibition at 70 g/ha: Herb. No. 1 0.07 Kg/Ha alone; for inhibition at 280 g/ha: Herb. No. 1 0.28 Kg/Ha alone. The protocol: Tests according to this invention in various crops indicate widespread application of the invention. In Examples 62-66 below are described tests with a variety of herbicides contacted with COUNTER® 15G in the presence and absence of MON-7400 (Antidote No. 12); MON-13900 (No. 1); MON-4660 (No. 16) and flurazole (No. 16). Those tests were conducted according to Procedures IV or V described above and illustrated further in other foregoing examples. Plants used in all tests were, for crops (as abbreviated in parentheses); cotton (COTT); soybean (SOBE); CORN, grain sorghum (GRSO); wheat (WHEA) and RICE, and the weeds giant foxtail (GIFT) and velvetleaf (VELE). The data in the tables below represent averages of two replications.
In this test the crops and weeds were planted 1.3 cm deep in 13.7 cm X 27.7 cm pans containing Dupo silt loam soil. The test safeners were applied in acetone solution and COUNTER 15G as dry granules to soil cover layers and incorporated by shaking in a bag. Treated cover layers were placed on seeded pans which were transferred to greenhouse benches and subirrigated. Herbicide was applied POE six (6) days after PPI initiation and observations of plant injury made ten (10) days later; results are shown in Table 61. The herbicide used in this example was BEACON (No. 8).
In another test in the several crops and weeds used in this test series, the herbicidal component was MON-12000 (No. 1); the other components were the same. the procedure used in this test was the same as that described in Example 62, modified to use a light overhead irrigation (about 0.32 cm/day) during days 4-7 of the test. Table 64 […]

Test [3] relates to Giant foxtail (GIFT). Nature of the test: Greenhouse test Procedure VI (Examples 59-61; Tables 58-60). The test is classed as in vivo. An excerpt: This procedure describes interaction among herbicide, biocide and antidote when the herbicide is incorporated in a soil cover layer and the biocide and the antidote are applied in a soil furrow containing crop seed before emergence of the crop. The soil and seeding depth were described in Procedure IV. A first container was designated as an untreated control, a second container was designated as a herbicide control, a third container was designated as a herbicide + biocide control and a fourth container as a herbicide + biocide + antidote test container. The biocide and antidote were formulated as granules. The biocide was applied to the soil furrows of the third and fourth containers at an application rate of 1.1 mg of active compound per cm of row. The antidote was applied to the soil furrow of the fourth container at an application rate of 0.37 mg of active compound per cm of row. A measured amount of the herbicide dispersed or dissolved in acetone was applied to a measured quantity of soil. The quantity of soil treated with the herbicide was thoroughly mixed to incorporate the herbicide. Samples of this soil were used to cover the seed beds of the second, third and fourth containers. For each test series, the seed bed of the first container was likewise covered by a soil layer not treated with herbicide and without biocide or antidote in the soil furrow.
The containers were then placed on a bench in a greenhouse. Watering was by subirrigation plus overhead irrigation after the plants emerged. All treatments were run in duplicate. Plant response was observed according to Procedure IV. Variations in this procedure will be noted in the examples.
The procedure used in this example involved the PPI application of biocide and safener as described in general Procedure VI above. The "primary" herbicide in this test was MON-12000 (Herbi-cide No. 1) in admixture with other herbicides designated as "co-herbicides", which included LASSO® (co-herbicide B); DUAL® (C); acetochlor (A); EPTAM® (D); butylate (E) and PURSUIT® (K).
The in-furrow treatments with blended COUNTER 15G and antidote mixtures was as described in above examples. MON-12000 and the co-herbicides were formulated in acetone and applied as tank mixtures, incorporated into Dupo silt loam soil with a rotary drum mixer. Subsamples were used to cover seeded and in-furrow treated 10.2 cm pots. Pots were placed on greenhouse benches and subirrigated. Plant responses were observed thirteen days after PPI initiation. Test results (average of two replications) are shown in Table 58, wherein giant foxtail (GIFT) was used in place of shattercane.
This test was conducted in the same manner used in Example 59. All biocide and antidote components were the same and in these tests XRD-498 (Herbicide No. 21) was the prime herbicide. Co-herbicides are shown in Table 59 together with test data.
In one other test conducted as described in the preceding examples in this series of tests, the herbicide PURSUIT® was used as the primary herbicide (in the context of this invention) together with the same insecticide and safeners as above and the co-herbicides shown in Table 60, together with test results.

Setting [4] is: Antidote + Biocide No. 1 in furrow, Herbicide No. 6 0.14 Kg/Ha PPI.
[5] abbreviates: Antidote + Biocide No. 1 in furrow, Herbicide No. 11 0.0044 Kg/Ha PPI.
Setting [6] is: Antidote + Biocide No. 1 in furrow, Herbicide No. 12 0.0044 Kg/Ha PPI.
Where [7] appears, read: Antidote + Biocide No. 1 in furrow, Herbicide No. 13 0.0011 Kg/Ha PPI.
The mark [8] stands for this setting: Antidote + Biocide No. 1 in furrow, Herbicide No. 13 0.0022 Kg/Ha PPI.
Setting [9] is: Antidote + Biocide No. 1 in furrow, Herbicide No. 14 0.07 Kg/Ha PPI.
[10] abbreviates: Antidote + Biocide No. 1 in furrow, Herbicide No. 16 0.07 Kg/Ha PPI, 13 days.
Where [11] appears, read: Antidote + Biocide No. 1 in furrow, Herbicide No. 17 0.14 Kg/Ha PPI, 13 days.
Setting [12] is: Antidote + Biocide No. 1 in furrow, Herbicide No. 18 0.04 Kg/Ha PPI, 13 days.
Setting [13] is: Antidote + Biocide No. 1 in furrow, Herbicide No. 20 1.12 Kg/Ha PPI, 13 days.
The mark [14] stands for this setting: Antidote + Biocide No. 1 in furrow, Herbicide No. 22 0.28 Kg/Ha PPI, 13 days.
The mark [15] stands for this setting: Antidote + Biocide No. 1 in furrow, Herbicide No. 24 0.14 Kg/Ha PPI, 13 days.
Where [16] appears, read: Antidote + Biocide No. 1 in furrow, Herbicide No. 25 0.14 Kg/Ha PPI, 13 days.
Setting [17] is: Antidote + Biocide No. 1 in furrow, Herbicide No. 26 2.24 Kg/Ha PPI, 13 days.
The mark [18] stands for this setting: Antidote + Biocide No. 1 in furrow, Herbicide No. 28 0.04 Kg/Ha PPI, 13 days.

Structures are written as SMILES. Values joined by “and” are separate entries in the source; they are usually repeats but may differ in a detail not shown here. Equal entries are not always repeated.

In general, inhibition refers to the change of the read-out against control, counted positive when it falls. As for `COC(=O)c1c(Cl)nn(C)c1S(=O)(=O)NC(=O)Nc1nc(OC)cc(OC)n1` [Herbicide No. 1, N-[(4,6-dimethoxypyrimidin-2-yl)aminocarbonyl]-3-chloro-4-methoxycarbonyl-5-sulfonamide, reference compound], the inhibition at 140 g/ha in test [1] (Herb. No. 1 0.14 kg/Ha alone, PPI, 13 days after planting) was 95%; in test [1] (Table 51, Herbicide No. 1 0.14 Kg/Ha, where applied Biocide No. 8 8.96 kg/Ha and antidote 4.48 Kg/Ha, all PPI, observed 13 days after treatment), 85%; in test [1] (Table 52, Herbicide No. 1 0.14 Kg/Ha, where applied Biocide No. 5 8.96 kg/Ha and antidote 4.48 Kg/Ha, all PPI, observed 13 days after treatment), 85%. Also, the “% Inhibition VELE” value in test [1] (Herbicide No. 1 0.0175 Kg/Ha PPI alone, Table 19) is 85%; in test [1] (Herbicide No. 1 0.0175 Kg/Ha PPI alone, Table 20), 80%; in test [1] (Herbicide No. 1 0.0175 Kg/Ha PPI alone, Table 21) it was 80%; in test [1] (Herbicide No. 1 0.0175 Kg/Ha PPI alone, Table 22) it was 85%; in test [1] (in vivo), 95% and 90% and 80%. Also, the inhibition in test [2] (Table 64, Herb. No. 1 0.018 Kg/Ha + Biocide No. 1 8.96 Kg/Ha) is 75%; in test [2] (Table 64, Herb. No. 1 0.07 Kg/Ha + Biocide No. 1 8.96 Kg/Ha), 85%; in test [2] (Table 64, Herb. No. 1 0.28 Kg/Ha + Biocide No. 1 8.96 Kg/Ha), 100%; in test [2] (Table 65, Herb. No. 1 0.018 Kg/Ha + Biocide No. 1 8.96 Kg/Ha) it was 10%; in test [2] (Table 65, Herb. No. 1 0.07 Kg/Ha + Biocide No. 1 8.96 Kg/Ha), 80%; in test [2] (Table 65, Herb. No. 1 0.28 Kg/Ha + Biocide No. 1 8.96 Kg/Ha), 90%. The inhibition at 18 g/ha in test [2] (Table 64) turned out to be 70%; in test [2] (Table 65) it was 15%. For the same compound, the inhibition at 70 g/ha is 90% in test [2] (Table 64) and 80% in test [2] (Table 65). The figures for the inhibition at 280 g/ha in test [2] (Table 64) and in test [2] (Table 65) were 100% and 90%, respectively.

With `COC(=O)COC(c1ccccc1)c1ccccc1` [compound 12], the “% Inhibition VELE” value in test [1] ([…], PPI, 14 days after PPI (Table 34)) was 90%; in test [2] (Table 64, Herb. No. 1 0.018 Kg/Ha + Biocide No. 1 8.96 Kg/Ha + Antidote 4.48 Kg/Ha) it was 50%; in test [2] (Table 64, Herb. No. 1 0.07 Kg/Ha + Biocide No. 1 8.96 Kg/Ha + Antidote 4.48 Kg/Ha), 85%; in test [2] (Table 64, Herb. No. 1 0.28 Kg/Ha + Biocide No. 1 8.96 Kg/Ha + Antidote 4.48 Kg/Ha) it was 95%; in test [2] (Table 65, Herb. No. 1 0.018 Kg/Ha + Biocide No. 1 8.96 Kg/Ha + Antidote 4.48 Kg/Ha), 0%; in test [2] (Table 65, Herb. No. 1 0.07 Kg/Ha + Biocide No. 1 8.96 Kg/Ha + Antidote 4.48 Kg/Ha) it was 75%. Further, the “% Inhibition VELE” value in test [2] (Table 65, Herb. No. 1 0.28 Kg/Ha + Biocide No. 1 8.96 Kg/Ha + Antidote 4.48 Kg/Ha) is reported as 85%. For the same compound, the “% Inhibition GIFT” value in test [3] (setting [4]) is on record as 60%; in test [3] (setting [5]), 0%; in test [3] (setting [6]), 0%; in test [3] (setting [7]), 0%; in test [3] (setting [8]), 25%; in test [3] (setting [9]), 0%. The “% Inhibition GIFT” value in test [3] (setting [10]) came to 35%; in test [3] (setting [11]), 80%; in test [3] (setting [12]), 50%; in test [3] (setting [13]), 25%; in test [3] (setting [14]), 20%; in test [3] (setting [15]), 20%. The “% Inhibition GIFT” value turned out to be 25% in test [3] (setting [16]); 0% in test [3] (setting [17]); 35% in test [3] (setting [18]); 0% in test [3] (Herbicide No. 12 0.0044 Kg/Ha PPI + Biocide No. 1 in furrow, no antidote); 0% in test [3] (Herbicide No. 12 0.0044 Kg/Ha PPI alone, average of two reps).

In the case of `N#CCOc1ccc(Cl)c2cccnc12` [compound 33], the “% Inhibition GIFT” value in test [3] (setting [4]) came to 70%; in test [3] (setting [5]), 0%; in test [3] (setting [6]) it was 0%; in test [3] (setting [7]) it was 10%; in test [3] (setting [8]) it was 35%; in test [3] (setting [9]), 0%. Further, the “% Inhibition GIFT” value in test [3] (setting [10]) worked out at 45%; in test [3] (setting [11]), 80%; in test [3] (setting [12]), 45%; in test [3] (setting [13]), 30%; in test [3] (setting [14]), 15%; in test [3] (setting [15]), 25%. Also, the “% Inhibition GIFT” value in test [3] (setting [16]) is recorded as 25%; in test [3] (setting [17]) it was 15%; in test [3] (setting [18]) it was 40%.

The values above are taken from patent EP0565593B1, “REDUCING PESTICIDAL INTERACTIONS IN CROPS” (priority 1990, dated 1992).
